According to PMC11142126 (bioRxiv, 2024):

What was measured:
PPM1D [1] = target: T1, PPM1D (Homo sapiens, UniProt O15297); assay: SPR; type: binding
T1 sequence (O15297 1-420): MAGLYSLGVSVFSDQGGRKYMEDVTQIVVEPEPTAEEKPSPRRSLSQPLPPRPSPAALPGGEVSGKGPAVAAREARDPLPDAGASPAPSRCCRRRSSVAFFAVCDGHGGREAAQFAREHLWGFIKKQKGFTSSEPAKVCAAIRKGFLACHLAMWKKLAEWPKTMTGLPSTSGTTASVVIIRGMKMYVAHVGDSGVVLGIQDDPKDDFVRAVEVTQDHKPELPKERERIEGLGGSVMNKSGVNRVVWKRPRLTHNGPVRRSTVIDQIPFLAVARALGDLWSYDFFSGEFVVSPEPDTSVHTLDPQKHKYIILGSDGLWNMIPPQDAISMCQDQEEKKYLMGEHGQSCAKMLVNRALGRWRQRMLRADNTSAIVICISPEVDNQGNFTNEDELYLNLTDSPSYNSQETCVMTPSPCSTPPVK

[2] = test system: MOLM13 TP53 WT (MOLM13-tPPM1D); assay: cells; details: Homo sapiens, MOLM-13, read-out: 461 / 5.3 / 107
[3] = test system: K562 p21-ffLuc reporter (wildtype TP53); assay: cells; details: Homo sapiens, K562, read-out: 461 / 5.3 / 107
[4] = test system: PPM1D in MOLM13-tPPM1D cells; assay: cells; details: read-out: 461 / 5.3 / 107
PPM1D [5] = target: T1, PPM1D; assay: biochemical

Question: `Cc1ncc(Cl)cc1NCc1ccc(C(=O)N[C@@H](CC2CCCC2)C(=O)NC2CC2)s1` [GSK2830371] was tested. Which Kd (PPM1D [1]) did it give?
Answer: Its Kd is 8 nM.

Question: What about the IC50 [2] of the same compound?
Answer: The IC50 was 394 nM.

Question: And the EC50 [3]?
Answer: The EC50 was 221 nM.

Question: What about the EC50 [4] of the same compound?
Answer: Its EC50 is 383 nM.

Question: What about the IC50 (PPM1D [5]) of the same compound?
Answer: Its IC50 is 20 nM.
